From ChEMBL document CHEMBL1201862, “PubChem BioAssay data set” (2004)
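Briefly, cells in 96-well plates were exposed to five compound concentrations for 48 h, and endpoints were estimated by linear interpolation. GI50 marks 50% less growth.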 Active and inactive are the calls of the source. Cut-off read from the data, not from the text of the source: active = GI50 up to about 1.1 µM and inactive = higher.

Columns and labels:
Assay in all cases: NCI-60 cell line screen, 48 h
K562 = system: K562
CAKI-1 = system: CAKI-1
NCI-H226 = system: NCI-H226
NCI-H522 = system: NCI-H522
OVCAR-3 = system: OVCAR-3
KM12 = system: KM12
Malme-3M = system: Malme-3M
786-0 = system: 786-0
CCRF-CEM = system: CCRF-CEM
SK-MEL-5 = system: SK-MEL-5
EKVX = system: EKVX
SK-MEL-2 = system: SK-MEL-2
MDA-N = system: MDA-N
SW-620 = system: SW-620
UACC-62 = system: UACC-62
SR = system: SR
SN12C = system: SN12C
HT-29 = system: HT-29
COLO 205 = system: COLO 205
ACHN = system: ACHN
HCT-15 = system: HCT-15
SF-268 = system: SF-268
U-251 = system: U-251
A549 = system: A549
BT-549 = system: BT-549
HOP-62 = system: HOP-62
OVCAR-4 = system: OVCAR-4
UACC-257 = system: UACC-257
M14 = system: M14
TK-10 = system: TK-10
IGROV-1 = system: IGROV-1
NCI/ADR-RES = system: NCI/ADR-RES
PC-3 = system: PC-3
MDA-MB-231 = system: MDA-MB-231
UO-31 = system: UO-31
MOLT-4 = system: MOLT-4
T47D = system: T47D
SF-539 = system: SF-539
OVCAR-8 = system: OVCAR-8
A498 = system: A498
SNB-19 = system: SNB-19
HCC 2998 = system: HCC 2998
HCT-116 = system: HCT-116
HL-60 = system: HL-60
SK-OV-3 = system: SK-OV-3
SK-MEL-28 = system: SK-MEL-28
NCI-H460 = system: NCI-H460
RPMI-8226 = system: RPMI-8226
SF-295 = system: SF-295
OVCAR-5 = system: OVCAR-5
MCF7 = system: MCF7
DU-145 = system: DU-145
Hs-578T = system: Hs-578T
NCI-H23 = system: NCI-H23
LOX IMVI = system: LOX IMVI
MDA-MB-435 = system: MDA-MB-435

O=C1c2ccccc2C(=O)c2c1ccc(C(=O)O)c2-c1ccc2ccccc2c1 was tested, and the GI50 (K562) was 25.9 µM (inactive), the GI50 (CAKI-1) was 29.3 µM (inactive) and the GI50 (NCI-H226) was 21.8 µM (inactive). The GI50 (NCI-H522) was 23.7 µM (inactive), the GI50 (OVCAR-3) was 18.2 µM (inactive) and the GI50 (KM12) was 27 µM (inactive). The GI50 (Malme-3M) was 24.1 µM (inactive), the GI50 (786-0) was 28.2 µM (inactive) and the GI50 (CCRF-CEM) was 23.3 µM (inactive). For the same molecule, the GI50 (SK-MEL-5) was 16.9 µM (inactive), the GI50 (EKVX) was 20.6 µM (inactive) and the GI50 (SK-MEL-2) was 19.1 µM (inactive). The GI50 (MDA-N) was 26.5 µM (inactive), the GI50 (SW-620) was 29.4 µM (inactive) and the GI50 (UACC-62) was 18.2 µM (inactive). The GI50 (SR) was 16.6 µM (inactive), the GI50 (SN12C) was 29.1 µM (inactive) and the GI50 (HT-29) was 32.5 µM (inactive). The GI50 (COLO 205) was 10.4 µM (inactive), the GI50 (ACHN) was 30.8 µM (inactive) and the GI50 (HCT-15) was 19.6 µM. The GI50 (SF-268) was 28 µM (inactive), the GI50 (U-251) was 21.9 µM (inactive) and the GI50 (A549) was 30.5 µM (inactive). The GI50 (BT-549) was 26.4 µM (inactive), the GI50 (HOP-62) was 32.2 µM (inactive) and the GI50 (OVCAR-4) was 30.8 µM (inactive). For the same molecule, the GI50 (UACC-257) was 49.8 µM (inactive), the GI50 (M14) was 20.5 µM (inactive) and the GI50 (TK-10) was 61.2 µM (inactive). The GI50 (IGROV-1) was 13.7 µM (inactive), the GI50 (NCI/ADR-RES) was 30.8 µM (inactive) and the GI50 (PC-3) was 24.5 µM (inactive). The GI50 (MDA-MB-231) was 23.2 µM (inactive), the GI50 (UO-31) was 21.2 µM (inactive) and the GI50 (MOLT-4) was 19.1 µM (inactive). The GI50 (T47D) was 2.22 µM (inactive), the GI50 (SF-539) was 25.8 µM (inactive) and the GI50 (OVCAR-8) was 33.5 µM (inactive). For the same molecule, the GI50 (A498) was 29 µM (inactive), the GI50 (SNB-19) was 34.7 µM (inactive) and the GI50 (HCC 2998) was 25.9 µM (inactive). For the same molecule, the GI50 (HCT-116) was 20.7 µM (inactive), the GI50 (HL-60) was 27.9 µM (inactive) and the GI50 (SK-OV-3) was 31 µM (inactive). The GI50 (SK-MEL-28) was 40.2 µM (inactive), the GI50 (NCI-H460) was 30.1 µM (inactive) and the GI50 (RPMI-8226) was 27.7 µM (inactive). For the same molecule, the GI50 (SF-295) was 28.5 µM (inactive), the GI50 (OVCAR-5) was 22.5 µM (inactive) and the GI50 (MCF7) was 3.42 µM (inactive). The GI50 (DU-145) was 16.2 µM (inactive), the GI50 (Hs-578T) was 23.9 µM (inactive) and the GI50 (NCI-H23) was 18.6 µM (inactive). For the same molecule, the GI50 (LOX IMVI) was 18.9 µM (inactive) and the GI50 (MDA-MB-435) was 23.8 µM (inactive).
